Drawing on PubChem BioAssay AID330 (DTP/NCI, 2004), this text covers T/C for 20 compounds.

In the assay the test system is P388 leukemia ip, CD2F1 mice, survival T/C. Put plainly: NCI In Vivo Anticancer Drug Screen. Data for tumor model P388 Leukemia (intraperitoneal) in CD2F1 (CDF1) mice. The following applies: endpoint: median survival time, higher = longer survival. Put shortly: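 Mice carrying the transplanted tumor received test compound or vehicle. Survival was recorded in each group, and the value is the treated-group measurement divided by that of the vehicle-treated control group.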

The mark [1] stands for this setting: dose: 50.0 mg/kg/injection, schedule: Q01DX005 (ip), vehicle: Klucel (hydroxypropylcellulose) (HPC).
Where [2] appears, read: dose: 50.0 mg/kg/injection, schedule: Q01DX009 (ip), vehicle: saline with Tween-80.
Setting [3] is: dose: 100.0 mg/kg/injection, schedule: Q01DX009 (ip), vehicle: saline with Tween-80.
Setting [4] is: dose: 50.0 mg/kg/injection, schedule: Q01DX005 (ip), vehicle: saline with Tween-80.
The mark [5] stands for this setting: dose: 100.0 mg/kg/injection, schedule: Q01DX005 (ip), vehicle: Klucel (hydroxypropylcellulose) (HPC).
[6] abbreviates: dose: 200.0 mg/kg/injection, schedule: Q01DX005 (ip), vehicle: Klucel (hydroxypropylcellulose) (HPC).
Setting [7] is: dose: 60.0 mg/kg/injection, schedule: Q01DX005 (ip), vehicle: Klucel (hydroxypropylcellulose) (HPC).
Where [8] appears, read: dose: 120.0 mg/kg/injection, schedule: Q01DX005 (ip), vehicle: Klucel (hydroxypropylcellulose) (HPC).
[9] abbreviates: dose: 200.0 mg/kg/injection, schedule: Q01DX009 (ip), vehicle: saline with Tween-80.

SMILES strings stand for the structures. Where “and” joins values, the source holds several entries; their conditions need not be identical. Equal entries are not always repeated. Inconclusive results and toxic doses are left out.

Consider `CC1(C)CC(NC2CCCCC2)=CC(=NC2CCCCC2)N1`, for which the T/C was 100 % of control (dose: 6.25 mg/kg/injection, schedule: Q01DX005 (ip), vehicle: Klucel (hydroxypropylcellulose) (HPC)); 105 % of control (dose: 12.5 mg/kg/injection, schedule: Q01DX005 (ip), vehicle: Klucel (hydroxypropylcellulose) (HPC)); 99 % of control and 101 % of control (dose: 25.0 mg/kg/injection, schedule: Q01DX005 (ip), vehicle: Klucel (hydroxypropylcellulose) (HPC)); 100 % of control under setting [1].

Regarding `O=C1C=C2C=CC(O)C(O)C2O1` (stereo unspecified), the T/C (dose: 2.5 mg/kg/injection, schedule: Q01DX009 (ip), vehicle: Klucel (hydroxypropylcellulose) (HPC)) was 102 % of control; the T/C (dose: 5.0 mg/kg/injection, schedule: Q01DX009 (ip), vehicle: Klucel (hydroxypropylcellulose) (HPC)) was 98 % of control; the T/C (dose: 10.0 mg/kg/injection, schedule: Q01DX009 (ip), vehicle: Klucel (hydroxypropylcellulose) (HPC)) was 100 % of control; the T/C (dose: 20.0 mg/kg/injection, schedule: Q01DX009 (ip), vehicle: Klucel (hydroxypropylcellulose) (HPC)) was 94 % of control.

Consider `CC(=NC(C)(C)C)Nc1ccc(Cl)cc1`, for which the T/C runs as follows: under setting [2], 103 % of control; under setting [3], 109 % of control.

In the case of `COC(=O)C(C)N(CCCl)P(=O)(N1CC1)N1CC1` (stereo unspecified), the T/C runs as follows: (dose: 7.5 mg/kg/injection, schedule: Q01DX005 (ip), vehicle: saline) 119 % of control; (dose: 30.0 mg/kg/injection, schedule: Q01DX005 (ip), vehicle: saline) 182 % of control.

As to `NNC(=O)C(=O)N/N=C(\CC1(O)C(=O)Nc2ccccc21)c1ccccc1O` (stereo unspecified), the T/C by setting is: under setting [4], 104 % of control; (dose: 100.0 mg/kg/injection, schedule: Q01DX005 (ip), vehicle: saline with Tween-80) 98 % of control; (dose: 200.0 mg/kg/injection, schedule: Q01DX005 (ip), vehicle: saline with Tween-80) 103 % of control.

Turning to `CC(N)C(=O)Nc1ccc(C(=O)O)c(O)c1` (stereo unspecified), the T/C reads like this: (dose: 60.0 mg/kg/injection, schedule: Q01DX005 (ip), vehicle: saline with Tween-80) 100 % of control; (dose: 120.0 mg/kg/injection, schedule: Q01DX005 (ip), vehicle: saline with Tween-80) 102 % of control; (dose: 240.0 mg/kg/injection, schedule: Q01DX005 (ip), vehicle: saline with Tween-80) 93 % of control.

As to `Cc1cc(=O)c2c(N(C)C)cccc2[nH]1`, the T/C by setting is: (dose: 50.0 mg/kg/injection, schedule: Q01DX009 (ip), vehicle: acid diluted with saline) 104 % of control; (dose: 100.0 mg/kg/injection, schedule: Q01DX009 (ip), vehicle: acid diluted with saline) 91 % of control; (dose: 200.0 mg/kg/injection, schedule: Q01DX009 (ip), vehicle: acid diluted with saline) 96 % of control.

Take `Cc1nn(-c2ccccc2)c2c1C(c1ccc([N+](=O)[O-])cc1)C(C#N)=C(N)O2` (stereo unspecified): the T/C is, setting by setting: (dose: 50.0 mg/kg/injection, schedule: Q01DX009 (ip), vehicle: Klucel (hydroxypropylcellulose) (HPC)) 102 % of control; (dose: 100.0 mg/kg/injection, schedule: Q01DX009 (ip), vehicle: Klucel (hydroxypropylcellulose) (HPC)) 90 % of control; (dose: 200.0 mg/kg/injection, schedule: Q01DX009 (ip), vehicle: Klucel (hydroxypropylcellulose) (HPC)) 107 % of control.

For the compound `CCOc1c(N=Nc2ccc(Cl)cc2)c(C)nn1C(=S)SC`, the T/C runs as follows: (dose: 7.5 mg/kg/injection, schedule: Q01DX005 (ip), vehicle: Klucel + Tween-80) 92 % of control; (dose: 15.0 mg/kg/injection, schedule: Q01DX005 (ip), vehicle: Klucel + Tween-80) 86 % of control; (dose: 30.0 mg/kg/injection, schedule: Q01DX005 (ip), vehicle: Klucel + Tween-80) 86 % of control; (dose: 60.0 mg/kg/injection, schedule: Q01DX005 (ip), vehicle: Klucel + Tween-80) 94 % of control.

Take `O=C(NC(Cc1ccc(I)cc1)C(=O)O)c1ccc(Br)cc1` (stereo unspecified): the T/C was 104 % of control (dose: 12.5 mg/kg/injection, schedule: Q01DX005 (ip), vehicle: sodium bicarbonate); 100 % of control (dose: 25.0 mg/kg/injection, schedule: Q01DX005 (ip), vehicle: sodium bicarbonate); 98 % of control under setting [1]; 94 % of control (dose: 50.0 mg/kg/injection, schedule: Q01DX005 (ip), vehicle: sodium bicarbonate); 98 % of control under setting [5]; 90 % of control and 94 % of control (dose: 100.0 mg/kg/injection, schedule: Q01DX005 (ip), vehicle: sodium bicarbonate). Moreover, the T/C under setting [6] is 101 % of control.

Regarding `CCCCCCCCCCCCSC(SCCCCCCCCCCCC)c1ccc(OCC(=O)O)cc1`, the T/C was 96 % of control (dose: 25.0 mg/kg/injection, schedule: Q04DX003 (ip), vehicle: DMSO); 91 % of control (dose: 50.0 mg/kg/injection, schedule: Q04DX003 (ip), vehicle: DMSO); 94 % of control (dose: 100.0 mg/kg/injection, schedule: Q04DX003 (ip), vehicle: DMSO); 91 % of control (dose: 200.0 mg/kg/injection, schedule: Q04DX003 (ip), vehicle: DMSO).

For the compound `CCCCN=Cc1c(O)c(O)c(C(C)C)c2cc(C)c(-c3c(C)cc4c(C(C)C)c(O)c(O)c(C=NCCCC)c4c3O)c(O)c12`, the T/C runs as follows: under setting [1], 99 % of control; under setting [5], 107 % of control; under setting [6], 114 % of control.

For the compound `[Cl][Cu][Cl].c1ccc2c(c1)Sc1ccccc1[N+]2=c1ccc2nc3ccccc3sc-2c1`, the T/C runs as follows: under setting [7], 87 % of control; under setting [8], 95 % of control.

For the compound `CCCCOc1ccc(Nc2c(C(=O)O)cnc3cc4c(cc23)OCO4)cc1`, the T/C by setting is: under setting [7], 100 % of control; under setting [8], 91 % of control; (dose: 240.0 mg/kg/injection, schedule: Q01DX005 (ip), vehicle: Klucel (hydroxypropylcellulose) (HPC)) 97 % of control.

As to `CCCCOCCOS(=O)(=O)c1ccc(C)cc1`, the T/C was 92 % of control under setting [2], 96 % of control under setting [3] and 106 % of control under setting [9].

For the compound `CC(C)C1=CC2=C(CC1)C1(C)CCCC(C)(C(=O)O)C1CC2` (stereo unspecified), the T/C was 100 % of control under setting [3]; 100 % of control under setting [9]; 100 % of control (dose: 400.0 mg/kg/injection, schedule: Q01DX009 (ip), vehicle: saline with Tween-80).

Turning to `CC(C)=CC1C(C(=O)OC23C=CC(CC2C)C3)C1(C)C` (stereo unspecified), the T/C is 104 % of control (dose: 50.0 mg/kg/injection, schedule: Q01DX009 (ip), vehicle: saline); 98 % of control (dose: 100.0 mg/kg/injection, schedule: Q01DX009 (ip), vehicle: saline); 102 % of control (dose: 200.0 mg/kg/injection, schedule: Q01DX009 (ip), vehicle: saline).

On to `C=C1C(=O)CCC1/C=C\C` (stereo unspecified), for which the T/C is, setting by setting: (dose: 12.5 mg/kg/injection, schedule: Q01DX005 (ip), vehicle: saline with Tween-80) 111 % of control; (dose: 25.0 mg/kg/injection, schedule: Q01DX005 (ip), vehicle: saline with Tween-80) 110 % of control; under setting [4], 99 % of control.

In the case of `CN(C)C(=O)c1ccc(SC(=S)NCc2ccccc2)cc1`, the T/C is 103 % of control (dose: 15.0 mg/kg/injection, schedule: Q01DX005 (ip), vehicle: Klucel (hydroxypropylcellulose) (HPC)); 103 % of control (dose: 30.0 mg/kg/injection, schedule: Q01DX005 (ip), vehicle: Klucel (hydroxypropylcellulose) (HPC)); 101 % of control and 104 % of control under setting [7]; 115 % of control under setting [8].

Consider `CCN(CC)Cc1cc(Nc2nc(/C=C/c3ccccc3)nc3ccccc23)ccc1O`, for which the T/C is 97 % of control (dose: 50.0 mg/kg/injection, schedule: Q01DX009 (ip), vehicle: distilled water + alcohol); 100 % of control (dose: 100.0 mg/kg/injection, schedule: Q01DX009 (ip), vehicle: distilled water + alcohol); 98 % of control (dose: 200.0 mg/kg/injection, schedule: Q01DX009 (ip), vehicle: distilled water + alcohol).
